According to US10844091B2 (priority 2017, dated 2020):
Non-standard residues stand in square brackets, D forms with d.

Assays:
[1] = test system: butyrylcholinesterase; settings: tetrapeptide 0.1 mg/kg
Experimental: (§1) Scopolamine was administered i.p. to the animals in all groups except for the control at a 1 mg/kg dose daily, once a day for 27 days. From the 28th day on, the animals in groups 2 and 3 were administered the comparator drug and the claimed preparation respectively over the course of 10 days. The drugs were administered daily, once a day.
(§2) The tetrapeptides were administered i.n at a 0.1 mg/kg dose. The animals in the pathology group received 0.9% sodium chloride solution i.n. and i.p. as a placebo.
(§3) A procedure for the isolation of noradrenaline (together with adrenaline), dopamine, 5-hydroxy tryptamine and histamine from the same tissue sample using a single column of strongly acidic cation exchange resin 1C. […] Determination of ATP content in tissue//Methods for biochemical research/Edited by prof. M. I. Prokhorova, Leningrad, pub.

[2] = target: acetylcholinesterase (Rattus norvegicus, UniProt P37136); settings: donepezil 1 mg/kg, tetrapeptide 0.1 mg/kg
acetylcholinesterase, sequence (P37136 32-614): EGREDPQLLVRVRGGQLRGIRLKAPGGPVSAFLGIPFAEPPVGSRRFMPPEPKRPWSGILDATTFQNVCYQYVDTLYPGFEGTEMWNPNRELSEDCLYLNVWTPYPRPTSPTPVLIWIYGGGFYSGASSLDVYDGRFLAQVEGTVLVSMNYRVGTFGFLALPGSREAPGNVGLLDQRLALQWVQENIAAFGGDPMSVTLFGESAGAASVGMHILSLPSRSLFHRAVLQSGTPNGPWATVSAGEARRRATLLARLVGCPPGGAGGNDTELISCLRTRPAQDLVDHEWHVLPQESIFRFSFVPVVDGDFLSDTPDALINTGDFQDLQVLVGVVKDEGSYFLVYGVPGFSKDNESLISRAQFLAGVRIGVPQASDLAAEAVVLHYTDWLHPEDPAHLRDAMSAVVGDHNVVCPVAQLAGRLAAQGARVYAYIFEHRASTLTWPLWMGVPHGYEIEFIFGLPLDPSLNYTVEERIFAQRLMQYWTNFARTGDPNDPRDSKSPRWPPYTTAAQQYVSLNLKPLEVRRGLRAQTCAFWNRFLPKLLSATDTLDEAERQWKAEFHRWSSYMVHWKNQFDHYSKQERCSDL
Experimental: as §1, §2, §3

[3] = test system: ATP; test: Brain ATP level in rat models with Alzheimer's disease; format: in vivo; settings: tetrapeptide 0.1 mg/kg; as a trend
Experimental: (§4) The drugs were administered daily, once a day.
1966, t. […] M. I. Prokhorova, Leningrad, pub. House LSU, 1982.—pp. 256-258].

[4] = Arteriovenous glucose difference in rat models with Alzheimer's disease; format: in vivo; settings: tetrapeptide 0.1 mg/kg; as a trend
Experimental: as §4
The OF and EE tests were conducted on the 1st day, PST—on the 2nd day, CPAR—on the 1st and 10th day post treatment with the preparations. The CPAR proficiency criterium—remaining in the light area of the CPAR device during at least 180 sec. The antiamnesic action (AA) in the CPAR test was calculated using Butler's formula [K. S. Radionova. Original nootropic preparation Noopept ameliorates memory loss caused by the M- and N-choline receptor blockade in rats/K. S. Radionova, A. P. Bel'nik, R. U. Ostrovskaya//Bul experim. Biology and Medicine.—2008.—T.146, No 1.—pp 65-68]. After that, the animals were removed from the experiment by administering a narcotic, followed by decapitation. The brain was extracted and weighed, and the brain weight coefficient (BWC) was calculated. […] Glucose levels in whole arterial (common carotid artery) and venous (venous cerebral sinus) blood were determined by the glucose oxidase test, the difference in the arterial-venous glucose content was calculated (glucose consumption marker). The levels of average weight molecules—the toxic products of cell biodegradation damaged during the disease (nucleoside derivatives, peptoids, glucuronic acid salts, etc.) in the blood serum (AWM) were calculated [A. N. Kovalevsky. […]

[5] = test system: rat models with Alzheimer's disease; test: Conditioned passive avoidance reflex (CPAR) test, scopolamine-induced Alzheimer's disease model; format: in vivo; settings: for antiamnesic action (AA) in the CPAR test: Butler's formula, 0.1 mg/kg; for number of animals who reached the CPAR learning criterium: % of total trained animals, criterium at least 180 sec in light area
Experimental: White random-bred adult male rats weighing 200-240 g were used. Groups of 7 animals per group were formed. 1st group—control, 2nd—pathology, 3rd—comparator drug, 4th-6th—neuropeptides.
as §1, §2
The OF and EE tests were conducted on the 1st day, PST—on the 2nd day, CPAR—on the 1st and 10th day post treatment with the preparations. […] The antiamnesic action (AA) in the CPAR test was calculated using Butler's formula [K. S. Radionova. […] After that, the animals were removed from the experiment by administering a narcotic, followed by decapitation. The brain was extracted and weighed, and the brain weight coefficient (BWC) was calculated. Immediately after extraction, the brain was frozen in liquid nitrogen and used in subsequent biochemical and histochemical studies. Glucose levels in whole arterial (common carotid artery) and venous (venous cerebral sinus) blood were determined by the glucose oxidase test, the difference in the arterial-venous glucose content was calculated (glucose consumption marker). The levels of average weight molecules—the toxic products of cell biodegradation damaged during the disease (nucleoside derivatives, peptoids, glucuronic acid salts, etc.) in the blood serum (AWM) were calculated [A. N. Kovalevsky. Notes on the screening method of determination average weight molecules/A. N. Kovalevsky, O. Ye. Nifantiev//Lab. Science. […] 35-39].

acetyl-D-Lys-Lys-Arg-Arg-amide (Ac-[dK]KRR-NH2; SMILES CC(=O)N[C@H](CCCCN)C(=O)N[C@@H](CCCCN)C(=O)N[C@@H](CCCNC(=N)N)C(=O)N[C@@H](CCCNC(=N)N)C(N)=O) [tetrapeptide (LYS), peptide acetyl-X-ARG-ARG-amide, X = D- and L-amino acid residues of lysine]
butyrylcholinesterase activity in the brain [1]: significantly increases | AChE activity in synapsosomes and in the whole brain homogenate [2]: reduces | brain ATP level [3]: increased ATP level | glucose utilization in the brain [4]: improved glucose utilization | antiamnesic action (AA) in the CPAR test ([5]; 10th day): 81.5% | increase of latent period compared to the pathology group ([5]; 24 hrs. post formation of CPAR): 79.5% | Latent period of entry into the dark area of the CPAR device, In 24 hrs. ([5]; In 24 hrs., scopolamine + donepezil 1 mg/kg or tetrapeptide (LYS) 0.1 mg/kg i.n.): 126.14 ± 23.62 s | Latent period of entry into the dark area of the CPAR device, In 10 days ([5]; In 10 days, scopolamine + donepezil 1 mg/kg or tetrapeptide (LYS) 0.1 mg/kg i.n.): 89.71 ± 19.09^ sec. | Latent period of entry into the dark area of the CPAR device, Initial ([5]; Initial, scopolamine + donepezil 1 mg/kg or tetrapeptide (LYS) 0.1 mg/kg i.n.): 20.14 ± 3.73 s | number of animals who reached the CPAR learning criterium ([5]; first day): 42.9% | antiamnesic action (AA) in the CPAR test ([5]; first day): 56.5% | increase of latent period compared to the pathology group ([5]; post 10 days, p<0.05): 130.9% | number of animals who reached the CPAR learning criterium ([5]; tenth day): 14.3%
